Assay results as given in paper PMC6309939 (Pain, 2019).

Target: human α4β3δ GABAA receptor (β3 subunit) (Homo sapiens, UniProt P28472)
Assay: two-electrode voltage clamp in oocytes, potentiation of GABA EC10 currents
Format: cell-based

Sequence of human α4β3δ GABAA receptor (β3 subunit) (P28472 26-473): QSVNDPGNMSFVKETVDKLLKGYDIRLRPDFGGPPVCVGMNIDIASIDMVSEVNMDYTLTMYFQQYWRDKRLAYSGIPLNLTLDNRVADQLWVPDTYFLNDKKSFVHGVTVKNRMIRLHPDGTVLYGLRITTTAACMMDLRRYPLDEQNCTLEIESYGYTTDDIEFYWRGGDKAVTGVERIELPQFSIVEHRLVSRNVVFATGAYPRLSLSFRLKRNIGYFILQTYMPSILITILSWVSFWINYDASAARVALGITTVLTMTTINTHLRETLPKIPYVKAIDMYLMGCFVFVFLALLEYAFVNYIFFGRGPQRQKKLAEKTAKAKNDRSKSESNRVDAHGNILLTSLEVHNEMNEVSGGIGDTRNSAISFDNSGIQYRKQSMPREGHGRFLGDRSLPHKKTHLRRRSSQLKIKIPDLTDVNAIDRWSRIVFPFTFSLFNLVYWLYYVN
Sequence of human α4β3δ GABAA receptor (β3 subunit) (P48169 36-554 partner): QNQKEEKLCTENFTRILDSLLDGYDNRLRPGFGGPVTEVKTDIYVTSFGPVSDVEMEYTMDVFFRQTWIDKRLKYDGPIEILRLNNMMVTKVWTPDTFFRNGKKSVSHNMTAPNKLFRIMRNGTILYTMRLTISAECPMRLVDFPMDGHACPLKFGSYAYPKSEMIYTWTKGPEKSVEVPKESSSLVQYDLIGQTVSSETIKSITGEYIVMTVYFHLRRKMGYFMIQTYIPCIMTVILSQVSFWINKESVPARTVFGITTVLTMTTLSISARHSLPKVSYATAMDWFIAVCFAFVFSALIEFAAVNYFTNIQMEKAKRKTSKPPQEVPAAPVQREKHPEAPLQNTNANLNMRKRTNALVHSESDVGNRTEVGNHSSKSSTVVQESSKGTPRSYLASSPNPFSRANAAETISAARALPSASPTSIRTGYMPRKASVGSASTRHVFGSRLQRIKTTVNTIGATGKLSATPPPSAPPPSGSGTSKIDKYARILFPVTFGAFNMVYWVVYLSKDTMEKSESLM
Sequence of human α4β3δ GABAA receptor (β3 subunit) (O14764 25-452 partner): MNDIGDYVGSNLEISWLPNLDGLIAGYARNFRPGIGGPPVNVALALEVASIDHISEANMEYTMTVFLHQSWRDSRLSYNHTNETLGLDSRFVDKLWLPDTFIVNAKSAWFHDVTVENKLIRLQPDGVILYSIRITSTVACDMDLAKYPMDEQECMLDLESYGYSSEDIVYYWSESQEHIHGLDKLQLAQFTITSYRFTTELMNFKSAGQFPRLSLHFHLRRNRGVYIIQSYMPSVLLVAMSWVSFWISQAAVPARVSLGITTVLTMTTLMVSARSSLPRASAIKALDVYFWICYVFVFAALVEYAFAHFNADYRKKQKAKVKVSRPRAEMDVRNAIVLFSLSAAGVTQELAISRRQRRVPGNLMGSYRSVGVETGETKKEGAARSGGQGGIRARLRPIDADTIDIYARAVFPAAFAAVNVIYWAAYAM

Q: `CC(=O)[C@H]1CC[C@H]2[C@@H]3CC[C@H]4C[C@H](O)CC[C@]4(C)[C@H]3CC[C@]12C` [ALLO, allopregnanolone] was tested. Which EC50 did it give?
A: The EC50 was 520 nM.
